Assay results taken from publication PMC5500991, “Substituted arylsulphonamides as inhibitors of perforin-mediated lysis” (European Journal of Medicinal Chemistry, 2017).
Counter-ions that a name gives are not always drawn.

Compound	melting point [°C]
COc1ccc(S(=O)(=O)Nc2cncc(-c3ccc(-c4ccc5c(c4)CN(C)C5=O)s3)c2)cc1OC (as salt: sodium) [Compound 40, 3,4-Dimethoxy-N-(5-(5-(2-methyl-1-oxoisoindolin-5-yl)thiophen-2-yl)pyridin-3-yl)benzenesulfonamide, sodium salt]	240 to 244
CN1Cc2cc(-c3ccc(-c4cncc(NS(=O)(=O)c5cccc(OC(F)(F)F)c5)c4)s3)ccc2C1=O [Compound 42, N-(5-(5-(2-Methyl-1-oxoisoindolin-5-yl)thiophen-2-yl)pyridin-3-yl)-3-(trifluoromethoxy)benzenesulfonamide]	230 to 232
COc1ncc(-c2ccc(-c3ccc4c(c3)CN(C)C4=O)s2)cc1NS(=O)(=O)c1ccc(F)cc1F [Compound 12, 2,4-Difluoro-N-(2-methoxy-5-(5-(2-methyl-1-oxoisoindolin-5-yl)-thiophen-2-yl)pyridin-3-yl)benzenesulphonamide]	224 to 227
CN1Cc2cc(-c3ccc(-c4cncc(NS(=O)(=O)c5ccc(Cl)cc5Cl)c4)s3)ccc2C1=O [Compound 31, 2,4-Dichloro-N-(5-(5-(2-methyl-1-oxoisoindolin-5-yl)thiophen-2-yl)pyridin-3-yl)benzenesulfonamide]	282 to 285
CN1Cc2cc(-c3ccc(-c4cccc(NS(=O)(=O)c5ccc(F)cc5F)c4)s3)ccc2C1=O [Compound 9, 2,4-Difluoro-N-(3-(5-(2-methyl-1-oxoisoindolin-5-yl)thiophen-2-yl)phenyl)benzene sulphonamide]	260 to 262
CN1Cc2cc(-c3ccc(-c4ccnc(NS(=O)(=O)c5ccc(F)cc5F)c4)s3)ccc2C1=O [Compound 5, 2,4-Difluoro-N-(4-(5-(2-methyl-1-oxoisoindolin-5-yl)thiophen-2-yl)pyridin-2-yl)benzenesulfonamide]	235 to 239
CN1Cc2cc(-c3ccc(-c4cncc(NS(=O)(=O)c5ccccc5Br)c4)s3)ccc2C1=O [Compound 32, 2-Bromo-N-(5-(5-(2-methyl-1-oxoisoindolin-5-yl)thiophen-2-yl)pyridin-3-yl)benzenesulfonamide]	289 to 293
CN1Cc2cc(-c3ccc(-c4cncc(NS(=O)(=O)c5cc(Br)cc(C(F)(F)F)c5)c4)s3)ccc2C1=O [Compound 65, 3-Bromo-N-(5-(5-(2-methyl-1-oxoisoindolin-5-yl)thiophen-2-yl)pyridin-3-yl)-5-(trifluoromethyl)benzenesulphonamide]	280 to 283
CN1Cc2cc(-c3ccc(-c4cncc(NS(=O)(=O)c5ccc(F)cc5)c4)s3)ccc2C1=O [Compound 24, 4-Fluoro-N-(5-(5-(2-methyl-1-oxoisoindolin-5-yl)thiophen-2-yl)pyridin-3-yl)benzenesulfonamide]	272 to 274
CN1Cc2cc(-c3ccc(-c4cncc(NS(=O)(=O)c5cccnc5)c4)s3)ccc2C1=O [Compound 67, N-(5-(5-(2-Methyl-1-oxoisoindolin-5-yl)thiophen-2-yl)pyridin-3-yl)pyridine-3-sulfonamide]	283 to 286
CN1Cc2cc(-c3ccc(-c4cncc(NS(=O)(=O)c5ccc(Br)cc5Br)c4)s3)ccc2C1=O [Compound 35, 2,4-Dibromo-N-(5-(5-(2-methyl-1-oxoisoindolin-5-yl)thiophen-2-yl)pyridin-3-yl)benzenesulfonamides]	276 to 279
CN1Cc2cc(-c3ccc(-c4cncc(NS(=O)(=O)c5ccc(-c6cnco6)cc5)c4)s3)ccc2C1=O [Compound 70, N-(5-(5-(2-Methyl-1-oxoisoindolin-5-yl)thiophen-2-yl)pyridin-3-yl)-4-(oxazol-5-yl)benzenesulfonamides]	278 to 281
COc1cccc(S(=O)(=O)Nc2cncc(-c3ccc(-c4ccc5c(c4)CN(C)C5=O)s3)c2)c1 [Compound 38, 3-Methoxy-N-(5-(5-(2-methyl-1-oxoisoindolin-5-yl)thiophen-2-yl)pyridin-3-yl)benzenesulfonamide]	278 to 280
CN1Cc2cc(-c3ccc(-c4cncc(S(=O)(=O)Nc5ccc(F)cc5F)c4)s3)ccc2C1=O [Compound 7, N-(2,4-Difluorophenyl)-5-(5-(2-methyl-1-oxoisoindolin-5-yl)thiophen-2-yl)pyridine-3-sulphonamide]	221 to 224
COC(=O)c1ccccc1S(=O)(=O)Nc1cncc(-c2ccc(-c3ccc4c(c3)CN(C)C4=O)s2)c1 [Compound 51, Methyl 2-(N-(5-(5-(2-methyl-1-oxoisoindolin-5-yl)thiophen-2-yl)pyridin-3-yl)sulfamoyl)benzoate]	209 to 212
CN1Cc2cc(-c3ccc(-c4cncc(NS(=O)(=O)c5ccccc5Cl)c4)s3)ccc2C1=O [Compound 27, 2-Chloro-N-(5-(5-(2-methyl-1-oxoisoindolin-5-yl)thiophen-2-yl)pyridin-3-yl)benzenesulfonamide]	299 to 303
CN1Cc2cc(-c3ccc(-c4ccc(OC(F)(F)F)c(NS(=O)(=O)c5ccccn5)c4)s3)ccc2C1=O [Compound 18, N-(5-(5-(2-Methyl-1-oxoisoindolin-5-yl)thiophen-2-yl)-2-(trifluoromethoxy)phenyl)pyridine-2-sulfonamide]	200 to 201
CN1Cc2cc(-c3ccc(-c4cncc(NS(=O)(=O)c5ccc(Cl)c(Cl)c5)c4)s3)ccc2C1=O [Compound 30, 3,4-Dichloro-N-(5-(5-(2-methyl-1-oxoisoindolin-5-yl)thiophen-2-yl)pyridin-3-yl)benzenesulfonamide]	256 to 259
CN1Cc2cc(-c3ccc(-c4cncc(NS(=O)(=O)c5ccc(F)c(F)c5)c4)s3)ccc2C1=O [Compound 25, 3,4-Difluoro-N-(5-(5-(2-methyl-1-oxoisoindolin-5-yl)thiophen-2-yl)pyridin-3-yl)benzenesulfonamide]	282 to 285
